Results on 7 molecules are retold here after patent publication US20100292169A1, “METHODS AND COMPOSITIONS FOR REGULATING HDAC6 ACTIVITY” (Duke University, priority 2005, published 2010).

Where a chain is given by its changes, count along the chain named. Square brackets hold non-standard residues; d marks the D form. Peptide text beside a SMILES is read from it. * marks the point of attachment. Aoe = N[C@@H](CCCCCC(=O)[C@@H]1CO1)C(=O)O; Cbz = O=C(OCc1ccccc1)*

Series [1] has as its system HDAC members. As to conditions: cited from earlier work.
For series [2], the system named is Hsp90-p23 interactions. Kind of series: Hsp90-p23 co-immunoprecipitation in A549 cells. The format is cell-based. As to conditions: treated for 4 hours or HDAC6 siRNA knockdown. Here is the method: (§1) Immunoprecipitation and immunostaining. Cells were lysed as described previously (Hubbert et al., 2002). Hsp90 antibody was pre-incubated with rabbit-anti-mouse (Jackson Labs) and Protein-A Sepharose beads (Roche) for 10 minutes. The bead/antibody mix was added to 750 μg of whole cell lysate and incubated at 4° C. for 3 hours. Samples were washed 4 times with 150 mM NETN(Hubbert et al., 2002) and subjected to SDS-PAGE and immunoblotting analysis. Immunolocalization of GR and HDAC6 was described previously (Hubbert et al., 2002).
(§2) Studies were also conducted to identify the molecular basis for the regulation of Hsp90 function via HDAC6-mediated deacetylation. Because the proper folding of GR by Hsp90 depends on the association of Hsp90 with a distinct set of co-chaperones into a chaperone complex (Neckers, 2002; Pratt and Toft, 2003), a determination was made regarding whether Hsp90 acetylation affects Hsp90/co-chaperone assembly. The p23 protein (Johnson and Toft, 1994) is a co-chaperone that stabilizes the Hsp90-GR complex and is critical for GR ligand binding activity in vitro and in vivo (Dittmar et al., 1997; Morishima et al., 2003). Control A549 cells and HDAC6 siRNA knockdown cells (KD) were left untreated or treated for 4 hours with TSA or TPXb. Lysates were immunoprecipitated with α-Hsp90 antibody followed by immunoblotting with α-p23 antibody. […]

Series [3] addresses glucocorticoid receptor (GR), endogenous, of A549 and 293T cells (human) (UniProt P04150). Kind of series: cell-based or functional assay.
Series [4] has as its system Hsp90. Kind of series: Hsp90 acetylation: α-Hsp90 immunoprecipitation, α-AcK immunoblot, in A549 cells. The format is cell-based. The method, then: as §1
HDAC6 regulates Hsp90 acetylation. To investigate the possibility that HDAC6 functions as an Hsp90 deacetylase, a determination was made regarding whether over-expression of HDAC6 can lead to Hsp90 deacetylation in vivo. […] A basal level of Hsp90 acetylation could be detected in control A549 cell lines. […] The reactions were then subjected to SDS-PAGE and immunoblotted with the indicated antibodies).
Hsp90 hyperacetylation is induced by dexamethasone and correlated with the dissociation of functional […]. Experiments were conducted to determine whether Hsp90 acetylation is regulated by dexamethasone. Control and HDAC6 knockdown A549 cells were cultured in hormone free media for 24 hours, and then stimulated with dexamethasone for the indicated time in hours. […]

The test system of series [5] is Hsp90-GR complex. Kind of series: Hsp90-GR co-immunoprecipitation in A549 cells. In kind it is cell-based. As to conditions: TSA 4 hours or HDAC6 knockdown. Here is the method: as §1, §2
Series [6] concerns p60^HOP and p50^cdc37. Kind of series: Rescue of p60HOP and p50cdc37 levels by proteasome inhibition after loss of HDAC6. The format is cell-based. An excerpt: Since p60^HOP and p50^cdc37 are critical co-chaperones for Hsp90 function, these observations provide further evidence that HDAC6 is required for full Hsp90 chaperone function.
The target of series [7] is acetylated (hyperacetylated) Hsp90 from HDAC6 knockdown or TSA-treated cells.
For series [8], the target named is T1, mouse glucocorticoid receptor (mGR), full length (mouse, UniProt P06537 1-792).
T1 construct: stripped of chaperones with 0.5 M NaCl before reconstitution; also called mouse GR
T1 sequence (looked up): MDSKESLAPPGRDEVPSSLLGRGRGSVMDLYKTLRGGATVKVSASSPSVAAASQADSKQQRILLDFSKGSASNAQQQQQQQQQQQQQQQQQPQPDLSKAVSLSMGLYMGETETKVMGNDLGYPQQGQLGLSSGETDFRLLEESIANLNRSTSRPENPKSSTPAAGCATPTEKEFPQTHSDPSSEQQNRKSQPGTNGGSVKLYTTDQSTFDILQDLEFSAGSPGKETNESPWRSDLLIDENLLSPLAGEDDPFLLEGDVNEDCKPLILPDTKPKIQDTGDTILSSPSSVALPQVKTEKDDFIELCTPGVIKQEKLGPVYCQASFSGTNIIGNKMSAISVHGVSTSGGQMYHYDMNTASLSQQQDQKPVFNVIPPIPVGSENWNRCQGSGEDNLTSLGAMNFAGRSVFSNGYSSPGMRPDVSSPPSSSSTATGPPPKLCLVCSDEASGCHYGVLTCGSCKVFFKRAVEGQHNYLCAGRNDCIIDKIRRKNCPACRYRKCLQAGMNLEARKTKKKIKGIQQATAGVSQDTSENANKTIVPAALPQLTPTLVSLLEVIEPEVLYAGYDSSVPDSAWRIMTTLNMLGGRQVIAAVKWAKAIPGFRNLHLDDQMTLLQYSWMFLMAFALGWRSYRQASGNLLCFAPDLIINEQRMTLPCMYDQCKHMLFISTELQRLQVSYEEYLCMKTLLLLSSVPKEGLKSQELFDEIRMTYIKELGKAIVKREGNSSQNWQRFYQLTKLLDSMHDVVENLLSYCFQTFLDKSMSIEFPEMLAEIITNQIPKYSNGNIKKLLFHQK
Kind of series: immunoadsorption of mGR from wild-type and HDAC6 knockdown 293T cells, immunoblot for coadsorbed p23 (within the GR.hsp90 complex). An excerpt:
Because an immunoadsorbing antibody against the human GR was not available, the mouse GR was transiently expressed in HEK cells.

Consider `O=C1N[C@@H](Cc2ccccc2)C(=O)N2CCC[C@@H]2C(=O)N[C@@H](CCCCCC(=O)[C@@H]2CO2)C(=O)N[C@H]1Cc1ccccc1` [TPXb] (cyclo(FF[dP][Aoe])), for which the HDAC inhibition profile result in series [1] is on record as “a potent inhibitor for all HDAC members except HDAC6”. Further, in series [2], the Hsp90-p23 interactions entry is recorded as “had little effect”. Molecule “acetylated (hyperacetylated) Hsp90 from HDAC6 knockdown or TSA-treated cells” yielded a GR ligand binding activity ([^3H]dexamethasone bound in 293T cytosol) (fold reduction) in series [3] of 6. `CC(/C=C/C(=O)NO)=C\[C@@H](C)C(=O)c1ccc(N(C)C)cc1` [trichostatin A]: the Hsp90-p23 interactions entry in series [2] is reported as “disrupted Hsp90-p23 interactions”. Besides, the “level of acetylated Hsp90” value in series [4] (A549 cells, treated for 4 hours (TPXb 100 nM) or stably expressing siRNA) is recorded as “dramatic rise in the level of acetylated Hsp90”. For the same molecule, the “Hsp90 acetylation in HDAC6 knockdown cells” value in series [4] (HDAC6 knockdown A549 cells, TSA treatment) is recorded as “little effect on Hsp90 acetylation”. Further, in series [5], the “Hsp90 and GR interaction” value is “significantly reduced”. For `CC(C)C[C@@H](C=O)NC(=O)[C@H](CC(C)C)NC(=O)[C@H](CC(C)C)NC(=O)OCc1ccccc1` [MG132] (Cbz-Leu-Leu-Leu-aldehyde), the “rescue of the reduction of p60^HOP and p50^cdc37” value in series [6] is “partially rescued”.

B1: Flag-HDAC6 (FLAG-tagged wild-type HDAC6) (protein)
chain: MTSTGQDSTTTRQRRSRQNPQSPPQDSSVTSKRNIKKGAVPRSIPNLAEVKKKGKMKKLGQAMEEDLIVGLQGMDLNLEAEALAGTGLVLDEQLNEFHCLWDDSFPEGPERLHAIKEQLIQEGLLDRCVSFQARFAEKEELMLVHSLEYIDLMETTQYMNEGELRVLADTYDSVYLHPNSYSCACLASGSVLRLVDAVLGAEIRNGMAIIRPPGHHAQHSLMDGYCMFNHVAVAARYAQQKHRIRRVLIVDWDVHHGQGTQFTFDQDPSVLYFSIHRYEQGRFWPHLKASNWSTTGFGQGQGYTINVPWNQVGMRDADYIAAFLHVLLPVALEFQPQLVLVAAGFDALQGDPKGEMAATPAGFAQLTHLLMGLAGGKLILSLEGGYNLRALAEGVSASLHTLLGDPCPMLESPGAPCRSAQASVSCALEALEPFWEVLVRSTETVERDNMEEDNVEESEEEGPWEPPVLPILTWPVLQSRTGLVYDQNMMNHCNLWDSHHPEVPQRILRIMCRLEELGLAGRCLTLTPRPATEAELLTCHSAEYVGHLRATEKMKTRELHRESSNFDSIYICPSTFACAQLATGAACRLVEAVLSGEVLNGAAVVRPPGHHAEQDAACGFCFFNSVAVAARHAQTISGHALRILIVDWDVHHGNGTQHMFEDDPSVLYVSLHRYDHGTFFPMGDEGASSQIGRAAGTGFTVNVAWNGPRMGDADYLAAWHRLVLPIAYEFNPELVLVSAGFDAARGDPLGGCQVSPEGYAHLTHLLMGLASGRIILILEGGYNLTSISESMAACTRSLLGDPPPLLTLPRPPLSGALASITETIQVHRRYWRSLRVMKVEDREGPSSSKLVTKKAPQPAKPRLAERMTTREKKVLEAGMGKVTSASFGEESTPGQTNSETAVVALTQDQPSEAATGGATLAQTISEAAIGGAMLGQTTSEEAVGGATPDQTTSEETVGGAILDQTTSEDAVGGATLGQTTSEEAVGGATLAQTTSEAAMEGATLDQTTSEEAPGGTELIQTPLASSTDHQTPPTSPVQGTTPQISPSTLIGSLRTLELGSESQGASESQAPGEENLLGEAAGGQDMADSMLMQGSRGLTDQAIFYAVTPLPWCPHLVAVCPIPAAGLDVTQPCGDCGTIQENWVCLSCYQVYCGRYINGHMLQHHGNSGHPLVLSYIDLSAWCYYCQAYVHHQALLDVKNIAHQNKFGEDMPHPH
B1: in series [7], the “in vitro deacetylation of acetylated Hsp90 (37° C., 60 minutes; α-AcK immunoblot)” value was “immuno-purified wild type but not catalytically inactive mutant HDAC6 can efficiently deacetylate acetylated Hsp90 in vitro” and the “restoration of stable GR.hsp90 heterocomplex assembly activity after incubation with immunopurified FLAG-HDAC6” value is on record as “The stable heterocomplex assembly activity of purified knockdown cell hsp90 is restored to the level of purified wild-type hsp90 by incubation with immunopurified FLAG-HDAC6”.

B2: Flag-HDAC6-cat-mut (H216/611A, catalytically inactive mutant) (protein)
chain: B1 chain with H216A, H611A
As to B2, the “in vitro deacetylation of acetylated Hsp90 (37° C., 60 minutes; α-AcK immunoblot)” value in series [7] is “immuno-purified wild type but not catalytically inactive mutant HDAC6 can efficiently deacetylate acetylated Hsp90 in vitro”.

B3: p23 protein (Hsp90 co-chaperone), endogenous, of A549 and 293T cells (other, UniProt Q15185 1-160, looked up)
chain: MQPASAKWYDRRDYVFIEFCVEDSKDVNVNFEKSKLTFSCLGGSDNFKHLNEIDLFHCIDPNDSKHKRTDRSILCCLRKGESGQSWPRLTKERAKLNWLSVDFNNWKDWEDDSDEDMSNFDRFSEMMNNMGGDEDVDLPEVDGADDDSQDSDDEKMPDLE
Turning to B3, in series [8], the binding result is given as “binds”.
